Laboratory results from US8471061B2 (priority 2004, dated 2013).
Where “and” joins values, the source holds several entries; their conditions need not be identical. Equal values may be shown once. Read-outs that look alike come from different tables or passages of the source.

How the values were obtained:
[1] = tested on: Salmonella typhimurium TA 1535; conditions: TA1535
Description: (§1) A test was carried out in accordance with the “Standard of Mutagenicity Tests Using Microorganisms” (Ministry of Labor Notification No. 77, 1988) (partial revision by Ministry of Labor Notification No. 67, 1997) and “Regarding the Tests Concerning Novel Chemical Substances and the like” (dated Nov. 21, 2003: Yaku-Shoku-Hatsu No. 1121002, 2003.11.13 Sei-Kyoku, No. 2, Kan-Ho-Ki-Hatsu No. 031121002). To 0.1 ml of a solution prepared by dissolving 5% (w/v) of 5-aminolevulinic acid phosphate in distilled water (Wako Pure Chemical Industries), 0.5 ml of 0.1 M sodium-phosphate buffer (pH 7.4) (0.5 ml S9 mix in the case of metabolism activation test) was added, and 0.1 ml of each test strain suspension (5 strains of histidine-less Salmonella typhimurium TA 100, TA 98, TA 1535 and TA 1537 and tryptophan-less Escherichia coli WP2 uvrA were used (Japan Bioassay Research Center)) was further added thereto, followed by pre-incubation at 37° C. for 20 minutes while shaking. After completion of the culturing, 2.0 ml of top agar kept at 45° C. in advance was added thereto and layered on a minimum glucose agar plate medium. In this case, 2 plates were arranged for each dosage. However, 3 plates were arranged for a solvent control (negative control). […] In the measurement, an inner area of about 80 mm in diameter of a plate of 86 mm in diameter (84 mm in inner diameter) was measured using an automatic colony analyzer (CA-11: manufactured by System Science), and calculated by carrying out area correction and counting loss correction using a personal computer. However, since reliability of the automatic colony analyzer is reduced when the number of colonies is 1,500 or more, 5 points in the plate were manually measured under the stereoscopic microscope to carry out area correction of the average value. A dosage setting test was carried out on 7 dosages diluted at a common ratio of 4, using a dosage of 5,000 μg/plate as the maximum which is the maximum dosage defined by the guideline.

[2] = tested on: Salmonella typhimurium TA 1537; conditions: TA1537
Description: as §1

[3] = tested on: Escherichia coli WP2 uvrA; experiment: Back mutation test, WP2uvrA; format: cell-based; conditions: for number of back mutation, single plates: Phosphate
Description: A test was carried out in accordance with the “Standard of Mutagenicity Tests Using Microorganisms” (Ministry of Labor Notification No. 77, 1988) (partial revision by Ministry of Labor Notification No. 67, 1997) and “Regarding the Tests Concerning Novel Chemical Substances and the like” (dated Nov. 21, 2003: Yaku-Shoku-Hatsu No. 1121002, 2003.11.13 Sei-Kyoku, No. 2, Kan-Ho-Ki-Hatsu No. 031121002). To 0.1 ml of a solution prepared by dissolving 5% (w/v) of 5-aminolevulinic acid phosphate in distilled water (Wako Pure Chemical Industries), 0.5 ml of 0.1 M sodium-phosphate buffer (pH 7.4) (0.5 ml S9 mix in the case of metabolism activation test) was added, and 0.1 ml of each test strain suspension (5 strains of histidine-less Salmonella typhimurium TA 100, TA 98, TA 1535 and TA 1537 and tryptophan-less Escherichia coli WP2 uvrA were used (Japan Bioassay Research Center)) was further added thereto, followed by pre-incubation at 37° C. for 20 minutes while shaking. After completion of the culturing, 2.0 ml of top agar kept at 45° C. in advance was added thereto and layered on a minimum glucose agar plate medium. In this case, 2 plates were arranged for each dosage. However, 3 plates were arranged for a solvent control (negative control). […] In the measurement, an inner area of about 80 mm in diameter of a plate of 86 mm in diameter (84 mm in inner diameter) was measured using an automatic colony analyzer (CA-11: manufactured by System Science), and calculated by carrying out area correction and counting loss correction using a personal computer. However, since reliability of the automatic colony analyzer is reduced when the number of colonies is 1,500 or more, 5 points in the plate were manually measured under the stereoscopic microscope to carry out area correction of the average value. A dosage setting test was carried out on 7 dosages diluted at a common ratio of 4, using a dosage of 5,000 μg/plate as the maximum which is the maximum dosage defined by the guideline. […] Growth inhibition of the strains by this substance to be tested was not found. […] Thus, this test was carried out by setting 5 dosages diluted at a common ratio of 2, using a dosage of 5,000 μg/plate as the maximum which is the maximum dosage defined by the guideline.

[4] = S9 Mix(−), 1250 μg/plate, Phosphate

Structure (SMILES): NCC(=O)CCC(=O)O.O=P(O)(O)O [5-aminolevulinic acid phosphate, 5-aminolevulinic Acid Phosphate]
- number of back mutation, mean (in parentheses) ([1]; S9 Mix(+), 313 μg/plate): (11) colonies/plate
- number of back mutation, single plates ([1]; S9 Mix(+), 313 μg/plate, Phosphate): 11 colonies/plate and 10 colonies/plate
- number of back mutation, mean (in parentheses) ([1]; S9 Mix(+), 625 μg/plate): (10) colonies/plate
- number of back mutation, mean (in parentheses) ([1]; S9 Mix(+), 1250 μg/plate): (12) colonies/plate
- number of back mutation, single plates ([1]; S9 Mix(+), 1250 μg/plate, Phosphate): 10 colonies/plate and 14 colonies/plate
- number of back mutation, mean (in parentheses) ([1]; S9 Mix(+), 2500 μg/plate): (8) colonies/plate
- number of back mutation, single plates ([1]; S9 Mix(+), 2500 μg/plate): 8 colonies/plate
- number of back mutation, mean (in parentheses) ([1]; S9 Mix(+), 5000 μg/plate): (7) colonies/plate
- number of back mutation, single plates ([1]; S9 Mix(+), 5000 μg/plate, Phosphate): 6 colonies/plate and 8 colonies/plate
- number of back mutation, mean (in parentheses) ([1]; S9 Mix(−), 313 μg/plate): (10) colonies/plate
- number of back mutation, single plates ([1]; S9 Mix(−), 313 μg/plate): 10 colonies/plate
- number of back mutation, mean (in parentheses) ([1]; S9 Mix(−), 625 μg/plate): (10) colonies/plate
- number of back mutation, mean (in parentheses) ([1]; S9 Mix(−), 1250 μg/plate): (10) colonies/plate
- number of back mutation, single plates [1, 4]: 8 colonies/plate and 11 colonies/plate
- number of back mutation, mean (in parentheses) ([1]; S9 Mix(−), 2500 μg/plate): (6) colonies/plate
- number of back mutation, single plates ([1]; S9 Mix(−), 2500 μg/plate, Phosphate): 6 colonies/plate and 5 colonies/plate
- number of back mutation, mean (in parentheses) ([1]; S9 Mix(−), 5000 μg/plate): (7) colonies/plate
- number of back mutation, mean (in parentheses) ([2]; S9 Mix(+), 313 μg/plate): (5) colonies/plate
- number of back mutation, mean (in parentheses) ([2]; S9 Mix(+), 625 μg/plate): (6) colonies/plate
- number of back mutation, mean (in parentheses) ([2]; S9 Mix(+), 1250 μg/plate): (6) colonies/plate
- number of back mutation, single plates ([2]; S9 Mix(+), 1250 μg/plate): 6 colonies/plate
- number of back mutation, mean (in parentheses) ([2]; S9 Mix(+), 2500 μg/plate): (4) colonies/plate
- number of back mutation, single plates ([2]; S9 Mix(+), 2500 μg/plate, Phosphate): 5 colonies/plate and 3 colonies/plate
- number of back mutation, mean (in parentheses) ([2]; S9 Mix(+), 5000 μg/plate): (4) colonies/plate
- number of back mutation, mean (in parentheses) ([2]; S9 Mix(−), 313 μg/plate): (2) colonies/plate
- number of back mutation, mean (in parentheses) ([2]; S9 Mix(−), 625 μg/plate): (3) colonies/plate
- number of back mutation, mean (in parentheses) ([2]; S9 Mix(−), 1250 μg/plate): (3) colonies/plate
- number of back mutation, single plates [2, 4]: 4 colonies/plate and 2 colonies/plate
- number of back mutation, mean (in parentheses) ([2]; S9 Mix(−), 2500 μg/plate): (2) colonies/plate
- number of back mutation, single plates ([2]; S9 Mix(−), 2500 μg/plate): 2 colonies/plate
- number of back mutation, mean (in parentheses) ([2]; S9 Mix(−), 5000 μg/plate): (3) colonies/plate
- number of back mutation, mean (in parentheses) ([3]; S9 Mix(+), 313 μg/plate): (24) colonies/plate
- number of back mutation, single plates ([3]; S9 Mix(+), 313 μg/plate): 31 colonies/plate and 17 colonies/plate
- number of back mutation, mean (in parentheses) ([3]; S9 Mix(+), 625 μg/plate): (32) colonies/plate
- number of back mutation, single plates ([3]; S9 Mix(+), 625 μg/plate): 40 colonies/plate and 24 colonies/plate
- number of back mutation, mean (in parentheses) ([3]; S9 Mix(+), 1250 μg/plate): (32) colonies/plate
- number of back mutation, single plates ([3]; S9 Mix(+), 1250 μg/plate): 34 colonies/plate and 29 colonies/plate
- number of back mutation, mean (in parentheses) ([3]; S9 Mix(+), 2500 μg/plate): (25) colonies/plate
- number of back mutation, single plates ([3]; S9 Mix(+), 2500 μg/plate): 23 colonies/plate and 27 colonies/plate
- number of back mutation, mean (in parentheses) ([3]; S9 Mix(+), 5000 μg/plate): (28) colonies/plate
- number of back mutation, single plates ([3]; S9 Mix(+), 5000 μg/plate): 25 colonies/plate and 30 colonies/plate
- number of back mutation, mean (in parentheses) ([3]; S9 Mix(−), 313 μg/plate): (31) colonies/plate
- number of back mutation, single plates ([3]; S9 Mix(−), 313 μg/plate): 25 colonies/plate and 36 colonies/plate
- number of back mutation, mean (in parentheses) ([3]; S9 Mix(−), 625 μg/plate): (28) colonies/plate
- number of back mutation, single plates ([3]; S9 Mix(−), 625 μg/plate): 27 colonies/plate and 28 colonies/plate
- number of back mutation, mean (in parentheses) ([3]; S9 Mix(−), 1250 μg/plate): (31) colonies/plate
- number of back mutation, single plates ([3]; S9 Mix(−), 1250 μg/plate): 28 colonies/plate and 33 colonies/plate
- number of back mutation, mean (in parentheses) ([3]; S9 Mix(−), 2500 μg/plate): (27) colonies/plate
- number of back mutation, single plates ([3]; S9 Mix(−), 2500 μg/plate): 25 colonies/plate and 28 colonies/plate
- number of back mutation, mean (in parentheses) ([3]; S9 Mix(−), 5000 μg/plate): (31) colonies/plate
- number of back mutation, single plates ([3]; S9 Mix(−), 5000 μg/plate): 25 colonies/plate and 36 colonies/plate
